In US20260248927A1, “TARGETED PROTEIN DEGRADATION USING BIFUNCTIONAL COMPOUNDS THAT BIND UBIQUITIN LIGASE AND TARGET MCL-1 PROTEIN” (Captor Therapeutics S.A., priority 2022, published 2026):
Structures can show the parent of a compound that is named as a salt.

How the values were obtained:
[1] = Cell viability assay (CellTiter-Glo), ARH-77; format: cell-based; conditions: human, ARH-77 cells (lymphoblast-like, MCL-1 independent), ARH-77, 24 hours, 1% FBS, read-out: Average pCC50 by molecule ARH-77 (converted)
Text: (§1) The effect of various compounds of the invention on the viability of MV4-11 and ARH-77 cell lines was investigated, using the CTG protocol described below.
(§2) MV4-11 cell lines are derived from acute myeloid leukaemia and it is described in the literature as a MCL-1 dependent cell line, as opposed to lymphoblast-like ARH-77 cell line, which is described as independent of MCL-1 (Tron A E et al. Nat Commun. 2018; 9: 5341; Caenepeel S et al. Cancer Discov. 2018 December; 8(12): 1582-1597).
(§3) Cells (MV4-11 or ARH-77) were seeded on […] in a growth medium with 1% FBS. Next, compound stocks were pre-diluted in DMSO and added directly to the cell culture media (final DMSO concentration: 0.5%). Compound concentrations used in this assay: 1/3 dilutions starting at 30 μM (9 to 12 points). After 24 hours of incubation, cell viability was evaluated using CellTiter-Glo Luminescent Cell Viability Assay (Promega, cat #G7572). The luminescence signal was measured using a CLARIOstar Plus Multi-Mode Microplate Reader (574-590 nm).
(§4) Results were normalized to DMSO control. Collected data were analyzed using GraphPad Prism to calculate pCC50 values.

MV4-11 cells = assay: Cell viability assay (CellTiter-Glo), MV4-11; format: cell-based; conditions: Homo sapiens, MV4-11, 24 hours, 1% FBS, read-out: Average pCC50 by molecule MV4-11 (converted)
Text: as §1, §2, §3, §4

[2] = target: [MCL-1]-[compound of formula (I)]—[CRBN/DDB1] (Homo sapiens, UniProt Q07820+Q96SW2); assay: HTRF ternary complex formation assay; format: binding; conditions: hMcl-1 and CRBN, 180 min at 25° C.; read-out: HTRF ternary complex Average pEC50 by molecule (converted)
Protocol: The effect of the bifunctional compounds of the invention on the formation of a ternary complex composed of [MCL-1]-[compound of formula (I)]—[CRBN/DDB1] was investigated with HTRF ternary complex assay.
Mix of protein solution was prepared: • 48 nM hMcl-1 and 105.6 nM CRBN were prepared in PPI Europium detection buffer with 2 mM DTT. • Acceptor and donor stock solutions were diluted 100 times in PPI Europium detection buffer. Equal volumes of both reagents were mixed. Finally giving 3 nM of Streptavidin-Eu cryptate ([…]) and 6.67 nM of Anti-6×his-d2 ([…]).
5 μl of protein mix was dispensed to all wells. The tested compounds in dose-response were dispensed onto a white 384-well low volume plate (Greiner, 784075). DMSO was backfilled to all wells, resulting in a final DMSO content of 0.5%. Wells containing only DMSO served as a background. Next, 5 μl of solution with donor and acceptor was added to the wells.
The plate was sealed with transparent film and shaken using a VibroTurbulator for 60 sec at level 3. The plate was then spun down shortly (10 s, 1000 rcf) and incubated at 25° C. for 180 min.
The read-out was performed with plate reader (Pherastar, BMG Labtech) in time resolved fluorescence mode. Filterset: TR 337 665 620.
The results were analyzed as follows: • 1) an average of fluorescence for background signal was calculated and used as a negative control; • 2) raw fluorescence values for tested compounds were normalized against negative controls; • 3) bell shape curve was fitted to a gaussian distribution using a non-linear least squares Gauss-Newton algorithm; • 4) EC50 and pEC50 values were determined.

[MCL-1]-[compound of formula (I)]—[CRBN/DDB1], sequence (Q07820 whole entry): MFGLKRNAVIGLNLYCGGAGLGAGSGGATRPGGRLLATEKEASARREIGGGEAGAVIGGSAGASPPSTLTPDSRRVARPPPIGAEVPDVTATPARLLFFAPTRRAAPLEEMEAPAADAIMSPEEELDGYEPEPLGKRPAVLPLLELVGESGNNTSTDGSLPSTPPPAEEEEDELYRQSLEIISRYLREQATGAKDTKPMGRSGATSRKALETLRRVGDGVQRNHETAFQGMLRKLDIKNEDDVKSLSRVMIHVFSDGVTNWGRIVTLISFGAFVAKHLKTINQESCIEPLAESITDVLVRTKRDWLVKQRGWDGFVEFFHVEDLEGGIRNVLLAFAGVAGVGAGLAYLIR
[MCL-1]-[compound of formula (I)]—[CRBN/DDB1], sequence (Q96SW2 whole entry): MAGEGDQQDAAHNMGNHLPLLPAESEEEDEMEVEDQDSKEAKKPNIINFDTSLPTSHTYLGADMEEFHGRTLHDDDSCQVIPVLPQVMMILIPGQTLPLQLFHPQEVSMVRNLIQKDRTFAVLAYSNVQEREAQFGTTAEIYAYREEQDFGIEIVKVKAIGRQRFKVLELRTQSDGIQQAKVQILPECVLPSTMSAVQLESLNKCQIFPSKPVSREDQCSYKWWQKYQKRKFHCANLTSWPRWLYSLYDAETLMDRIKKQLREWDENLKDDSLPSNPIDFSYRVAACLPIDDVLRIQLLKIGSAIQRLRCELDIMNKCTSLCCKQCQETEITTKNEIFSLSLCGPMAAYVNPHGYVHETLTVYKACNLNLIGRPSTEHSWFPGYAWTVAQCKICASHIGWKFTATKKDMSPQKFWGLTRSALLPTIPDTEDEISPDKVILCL
[MCL-1]-[compound of formula (I)]—[CRBN/DDB1], sequence (Q16531 whole entry partner): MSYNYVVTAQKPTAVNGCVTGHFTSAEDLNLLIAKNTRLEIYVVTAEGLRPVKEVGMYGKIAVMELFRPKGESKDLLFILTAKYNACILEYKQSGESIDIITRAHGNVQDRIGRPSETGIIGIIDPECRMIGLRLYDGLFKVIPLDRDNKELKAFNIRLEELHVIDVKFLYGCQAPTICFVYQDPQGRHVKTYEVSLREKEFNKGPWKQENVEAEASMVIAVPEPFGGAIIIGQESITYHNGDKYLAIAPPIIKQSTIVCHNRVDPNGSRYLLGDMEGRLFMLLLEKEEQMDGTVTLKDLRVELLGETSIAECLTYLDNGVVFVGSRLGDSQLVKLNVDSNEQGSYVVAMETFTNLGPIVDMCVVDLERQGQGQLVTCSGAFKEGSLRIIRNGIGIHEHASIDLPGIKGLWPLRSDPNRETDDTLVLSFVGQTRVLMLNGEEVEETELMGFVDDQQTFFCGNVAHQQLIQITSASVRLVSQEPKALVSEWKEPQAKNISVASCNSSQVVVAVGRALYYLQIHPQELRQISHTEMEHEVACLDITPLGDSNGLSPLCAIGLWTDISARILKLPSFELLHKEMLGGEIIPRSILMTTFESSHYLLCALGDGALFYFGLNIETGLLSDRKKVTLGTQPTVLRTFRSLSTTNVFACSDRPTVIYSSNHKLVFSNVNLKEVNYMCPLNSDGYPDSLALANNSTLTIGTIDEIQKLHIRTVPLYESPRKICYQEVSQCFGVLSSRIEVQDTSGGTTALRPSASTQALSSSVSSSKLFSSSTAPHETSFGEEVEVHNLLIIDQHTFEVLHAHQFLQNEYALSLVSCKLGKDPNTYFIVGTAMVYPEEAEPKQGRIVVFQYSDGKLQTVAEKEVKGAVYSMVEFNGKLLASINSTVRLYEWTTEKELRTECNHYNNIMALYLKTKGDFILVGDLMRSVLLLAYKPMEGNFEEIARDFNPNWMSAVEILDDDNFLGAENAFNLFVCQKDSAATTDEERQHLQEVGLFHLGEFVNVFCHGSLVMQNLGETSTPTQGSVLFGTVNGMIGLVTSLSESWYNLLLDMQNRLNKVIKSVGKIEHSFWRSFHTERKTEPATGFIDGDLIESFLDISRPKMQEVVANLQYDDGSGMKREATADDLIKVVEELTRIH

Cc1nn(C)c(C)c1-c1c(Cl)ccc2c(CCCOc3cccc4cc(F)ccc34)c(C(=O)O)n(CCN3CCC(CN4CCN(c5ccc6c(c5)C(C)N(C5CCC(=O)NC5=O)C6=O)CC4)CC3)c12 (mixture of isomers) [Compound 145, 6-Chloro-1-(2-(4-((4-(2-(2,6-dioxopiperidin-3-yl)-3-methyl-1-oxoisoindolin-5-yl)piperazin-1-yl)methyl)piperidin-1-yl)ethyl)-3-(3-((6-fluoronaphthalen-1-yl)oxy)propyl)-7-(1,3,5-trimethyl-1H-pyrazol-4-yl)-1H-indole-2-carboxylic acid]
CC50 at 24 h [1]: > 10000 nM
CC50 (MV4-11 cells): < 100 nM
EC50 [2]: < 31.6 nM

Cc1nn(C)c(C)c1-c1c(Cl)ccc2c(CCCOc3cccc4cc(F)ccc34)c(C(=O)O)n(CCN3CCN(C(=O)COc4ccc5c(c4)n(C)c(=O)n5C4CCC(=O)NC4=O)CC3)c12 (stereo not drawn) [Compound 22, 6-Chloro-1-(2-(4-(2-((1-(2,6-dioxopiperidin-3-yl)-3-methyl-2-oxo-2,3-dihydro-1H-benzo[d]imidazol-5-yl)oxy)acetyl)piperazin-1-yl)ethyl)-3-(3-((6-fluoronaphthalen-1-yl)oxy)propyl)-7-(1,3,5-trimethyl-1H-pyrazol-4-yl)-1H-indole-2-carboxylic acid]
CC50 at 24 h [1]: > 31600 nM
CC50 (MV4-11 cells): < 31.6 nM
EC50 [2]: < 100 nM

COCCOCCn1nc(C)c(-c2c(Cl)ccc3c(CCCOc4cccc5cc(F)ccc45)c(C(=O)O)n(CCN4CCN(C(=O)COc5cccc6c5CN(C5CCC(=O)NC5=O)C6=O)CC4)c23)c1C (stereo not drawn) [Compound 147, 1-(2-(2-Carboxy-6-chloro-3-(3-((6-fluoronaphthalen-1-yl)oxy)propyl)-7-(1-(2-(2-methoxyethoxy)ethyl)-3,5-dimethyl-1H-pyrazol-4-yl)-1H-indol-1-yl)ethyl)-4-(2-((2-(2,6-dioxopiperidin-3-yl)-1-oxoisoindolin-4-yl)oxy)acetyl)piperazin-1-ium trifluoroacetate]
CC50 at 24 h [1]: > 31600 nM
CC50 (MV4-11 cells): < 100 nM
EC50 [2]: < 100 nM
